Reference: the supplement of paper PMC10307832

How the values were obtained:
Assay in all cases: relative viability (nuclei count vs DMSO), 5 days (fraction); higher = more cells survive
GSK-J4 + Alpelisib = compound: CCOC(=O)CCNc1cc(N2CCc3ccccc3CC2)nc(-c2ccccn2)n1 [GSK-J4] + Cc1nc(NC(=O)N2CCC[C@H]2C(N)=O)sc1-c1ccnc(C(C)(C)C(F)(F)F)c1 [Alpelisib] (partner 2 µM)
Procedure, shortened: (§1)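 Relative viability divides the nuclei count in treated wells by that in vehicle wells. Lung cancer cell lines were seeded in 1536-well plates, dosed by pin tool the next day, and fixed and stained after 5 days in one step with final 0.05% Triton X-100, 1% formaldehyde and 1 ug/ml Hoechst. Dosing was a single drug or a fixed anchor-drug dose plus five library-drug doses (not always all listed) in √10 steps, and values are medians of duplicate plates imaged at 4×.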

GSK-J4 + Pemetrexed = compound: CCOC(=O)CCNc1cc(N2CCc3ccccc3CC2)nc(-c2ccccn2)n1 [GSK-J4] + Nc1nc2[nH]cc(CCc3ccc(C(=O)N[C@@H](CCC(=O)O)C(=O)O)cc3)c2c(=O)[nH]1 [Pemetrexed] (partner 0.2 µM)
Procedure, shortened: as §1

GSK-J4 + Olaparib = compound: CCOC(=O)CCNc1cc(N2CCc3ccccc3CC2)nc(-c2ccccn2)n1 [GSK-J4] + O=C(c1cc(Cc2n[nH]c(=O)c3ccccc23)ccc1F)N1CCN(C(=O)C2CC2)CC1 [Olaparib] (partner 8 µM)
Procedure, shortened: as §1

AZ3146 + Dasatinib = compound: CN1CCC(CC1)OC2=CC(=C(C=C2)NC3=NC=C4C(=N3)N(C(=O)N4C)C5CCCC5)OC [AZ3146] + Cc1nc(Nc2ncc(C(=O)Nc3c(C)cccc3Cl)s2)cc(N2CCN(CCO)CC2)n1 [Dasatinib] (partner 0.075 µM)
Procedure, shortened: as §1

Cell Line: UMC-11
- relative viability (GSK-J4 + Alpelisib; first compound 0.5 µM): 0.932
- relative viability (GSK-J4 + Alpelisib; first compound 1.581 µM): 0.856
- relative viability (GSK-J4 + Alpelisib; first compound 5 µM): 1.06
- relative viability (GSK-J4 + Alpelisib; first compound 15.81 µM): 0.938
- relative viability (GSK-J4 + Alpelisib; first compound 50 µM): 0.607
- relative viability (GSK-J4 + Pemetrexed; first compound 0.5 µM): 0.759
- relative viability (GSK-J4 + Pemetrexed; first compound 1.581 µM): 0.667
- relative viability (GSK-J4 + Pemetrexed; first compound 5 µM): 0.736
- relative viability (GSK-J4 + Pemetrexed; first compound 15.81 µM): 0.771
- relative viability (GSK-J4 + Pemetrexed; first compound 50 µM): 0.649
- relative viability (GSK-J4 + Olaparib; first compound 0.5 µM): 0.364
- relative viability (GSK-J4 + Olaparib; first compound 1.581 µM): 0.324
- relative viability (GSK-J4 + Olaparib; first compound 5 µM): 0.299
- relative viability (GSK-J4 + Olaparib; first compound 15.81 µM): 0.353
- relative viability (GSK-J4 + Olaparib; first compound 50 µM): 0.272
- relative viability (AZ3146 + Dasatinib; first compound 0.08 µM): 0.426
- relative viability (AZ3146 + Dasatinib; first compound 0.253 µM): 0.562
- relative viability (AZ3146 + Dasatinib; first compound 0.8 µM): 0.463
- relative viability (AZ3146 + Dasatinib; first compound 2.53 µM): 0.452
- relative viability (AZ3146 + Dasatinib; first compound 8 µM): 0.257
